{
  "source": "patent US11820766B2",
  "about": "“Monoacylglycerol lipase modulators” (Janssen Pharmaceutica NV, priority 2018, dated 2023)",
  "note": "Structures can show the parent of a compound that is named as a salt.",
  "data": [
    {"target": "T1, human MGL from HeLa cells (Homo sapiens, UniProt Q99685)", "T1 construct": "combining endogenously expressed MGL from HeLa cells with test compounds; endogenous in cells; host or cells: HeLa cells / cell homogenates", "T1 sequence (Q99685 1-303)": "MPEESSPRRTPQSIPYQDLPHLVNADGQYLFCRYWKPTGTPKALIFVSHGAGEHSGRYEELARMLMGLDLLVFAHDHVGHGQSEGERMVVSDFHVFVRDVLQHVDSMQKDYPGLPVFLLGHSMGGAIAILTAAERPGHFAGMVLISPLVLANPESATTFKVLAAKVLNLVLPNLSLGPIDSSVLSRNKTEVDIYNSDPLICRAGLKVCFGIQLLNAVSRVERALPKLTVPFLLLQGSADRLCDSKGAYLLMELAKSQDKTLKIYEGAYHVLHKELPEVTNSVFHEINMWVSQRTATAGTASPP", "test": "In vitro MGL activity assay: [glycerol-1,3-3H]-oleyl glycerol cleavage by MGL from HeLa cells", "type": "biochemical", "conditions": "300 nM [Glycerol-1,3-3H]-oleyl glycerol, one hour", "description": "MGL is the predominant hydrolase in HeLa cells/cell homogenates.", "units": {"IC50": "nM"}, "values": [
      {"smiles": "C[C@H]1c2nn(C)c(-c3cc(F)c(F)c(F)c3)c2CCN1C(=O)c1nn(C)c2ncccc12", "note": "[Example 427, [(7S)-2,7-Dimethyl-3-(3,4,5-trifluorophenyl)-5,7-dihydro-4H-pyrazolo[3,4-c]pyridin-6-yl]-(1-methylpyrazolo[3,4-b]pyridin-3-yl)methanone]", "IC50": 28.6},
      {"smiles": "C[C@H]1c2nn(C)c(-c3cc(F)c(F)c(F)c3)c2CCN1C(=O)c1n[nH]c2ncc(F)cc12", "note": "[Example 428, [(7S)-2,7-Dimethyl-3-(3,4,5-trifluorophenyl)-5,7-dihydro-4H-pyrazolo[3,4-c]pyridin-6-yl]-(5-fluoro-1H-pyrazolo[3,4-b]pyridin-3-yl)methanone.TFA salt]", "IC50": 23},
      {"smiles": "C[C@H]1c2nn(C)c(-c3cc(F)c(F)c(F)c3)c2CCN1C(=O)c1nccc2cn(C)nc12", "note": "[Example 429, [(7S)-2,7-Dimethyl-3-(3,4,5-trifluorophenyl)-5,7-dihydro-4H-pyrazolo[3,4-c]pyridin-6-yl]-(2-methylpyrazolo[3,4-c]pyridin-7-yl)methanone]", "IC50": 412},
      {"smiles": "C[C@H]1c2nn(C)c(-c3cc(F)c(F)c(F)c3)c2CCN1C(=O)c1n[nH]c2cnccc12", "note": "[Example 430, [(7S)-2,7-Dimethyl-3-(3,4,5-trifluorophenyl)-5,7-dihydro-4H-pyrazolo[3,4-c]pyridin-6-yl]-(1H-pyrazolo[3,4-c]pyridin-3-yl)methanone]", "IC50": 56.1},
      {"smiles": "C[C@H]1c2nn(C)c(-c3cc(F)c(F)c(F)c3)c2CCN1C(=O)c1nn(C)c2cnccc12", "note": "[Example 431, [(7S)-2,7-Dimethyl-3-(3,4,5-trifluorophenyl)-5,7-dihydro-4H-pyrazolo[3,4-c]pyridin-6-yl]-(1-methylpyrazolo[3,4-c]pyridin-3-yl)methanone.TFA salt]", "IC50": 95.3},
      {"smiles": "C[C@H]1c2nn(C)c(-c3cc(F)c(F)c(F)c3)c2CCN1C(=O)c1nccc2cn[nH]c12", "note": "[Example 432, [(7S)-2,7-Dimethyl-3-(3,4,5-trifluorophenyl)-5,7-dihydro-4H-pyrazolo[3,4-c]pyridin-6-yl]-(1H-pyrazolo[3,4-c]pyridin-7-yl)methanone]", "IC50": 274},
      {"smiles": "C[C@H]1c2nn(C)c(-c3cc(F)c(F)c(F)c3)c2CCN1C(=O)c1nccc2cnn(C)c12", "note": "[Example 433, [(7S)-2,7-Dimethyl-3-(3,4,5-trifluorophenyl)-5,7-dihydro-4H-pyrazolo[3,4-c]pyridin-6-yl]-(1-methylpyrazolo[3,4-c]pyridin-7-yl)methanone]", "IC50": 104},
      {"smiles": "C[C@H]1c2nn(C)c(-c3cc(F)c(F)c(F)c3)c2CCN1C(=O)c1cncc2cn[nH]c12", "note": "[Example 434, [(7S)-2,7-Dimethyl-3-(3,4,5-trifluorophenyl)-5,7-dihydro-4H-pyrazolo[3,4-c]pyridin-6-yl]-(1H-pyrazolo[4,3-c]pyridin-7-yl)methanone]", "IC50": 277},
      {"smiles": "C[C@H]1c2nn(C)c(-c3cc(F)c(F)c(F)c3)c2CCN1C(=O)c1n[nH]c2ccncc12", "note": "[Example 435, [(7S)-2,7-Dimethyl-3-(3,4,5-trifluorophenyl)-5,7-dihydro-4H-pyrazolo[3,4-c]pyridin-6-yl]-(1H-pyrazolo[4,3-c]pyridin-3-yl)methanone]", "IC50": 40.2},
      {"smiles": "C[C@H]1c2nn(C)c(-c3cc(F)c(F)c(F)c3)c2CCN1C(=O)c1n[nH]c2cccnc12", "note": "[Example 436, [(7S)-2,7-Dimethyl-3-(3,4,5-trifluorophenyl)-5,7-dihydro-4H-pyrazolo[3,4-c]pyridin-6-yl]-(1H-pyrazolo[4,3-b]pyridin-3-yl)methanone]", "IC50": 175},
      {"smiles": "C[C@H]1c2nn(C)c(-c3cc(F)c(F)c(F)c3)c2CCN1C(=O)c1nnc2ccccn12", "note": "[Example 437, [(7S)-2,7-Dimethyl-3-(3,4,5-trifluorophenyl)-5,7-dihydro-4H-pyrazolo[3,4-c]pyridin-6-yl]-([1,2,4]triazolo[4,3-a]pyridin-3-yl)methanone]", "IC50": 187},
      {"smiles": "C[C@H]1c2nn(C)c(-c3cc(F)c(F)c(F)c3)c2CCN1C(=O)c1cccc2nncn12", "note": "[Example 438, [(7S)-2,7-Dimethyl-3-(3,4,5-trifluorophenyl)-5,7-dihydro-4H-pyrazolo[3,4-c]pyridin-6-yl]-([1,2,4]triazolo[4,3-a]pyridin-5-yl)methanone]", "IC50": 513},
      {"smiles": "C[C@H]1c2nn(C)c(-c3cc(F)c(F)c(F)c3)c2CCN1C(=O)c1ccc2nncn2c1", "note": "[Example 439, [(7S)-2,7-Dimethyl-3-(3,4,5-trifluorophenyl)-5,7-dihydro-4H-pyrazolo[3,4-c]pyridin-6-yl]-([1,2,4]triazolo[4,3-a]pyridin-6-yl)methanone]", "IC50": 9270},
      {"smiles": "C[C@H]1c2nn(C)c(-c3cc(F)c(F)c(F)c3)c2CCN1C(=O)c1ccc2nnc(C(F)F)n2c1", "note": "[Example 440, [3-(Difluoromethyl)-[1,2,4]triazolo[4,3-a]pyridin-6-yl]-[(7S)-2,7-dimethyl-3-(3,4,5-trifluorophenyl)-5,7-dihydro-4H-pyrazolo[3,4-c]pyridin-6-yl]methanone]", "IC50": 865},
      {"smiles": "C[C@H]1c2nn(C)c(-c3cc(F)c(F)c(F)c3)c2CCN1C(=O)c1nnn2ccccc12", "note": "[Example 441, [(7S)-2,7-Dimethyl-3-(3,4,5-trifluorophenyl)-5,7-dihydro-4H-pyrazolo[3,4-c]pyridin-6-yl]-(triazolo[1,5-a]pyridin-3-yl)methanone]", "IC50": 24.1},
      {"smiles": "Cc1nn2ncccc2c1C(=O)N1CCc2c(nn(C)c2-c2cc(F)c(F)c(F)c2)[C@@H]1C", "note": "[Example 442, [(7S)-2,7-Dimethyl-3-(3,4,5-trifluorophenyl)-5,7-dihydro-4H-pyrazolo[3,4-c]pyridin-6-yl]-(2-methylpyrazolo[1,5-b]pyridazin-3-yl) methanone]", "IC50": 43.9},
      {"smiles": "Cc1cnn2ncc(C(=O)N3CCc4c(nn(C)c4-c4cc(F)c(F)c(F)c4)[C@@H]3C)c2c1", "note": "[Example 443, [(7S)-2,7-Dimethyl-3-(3,4,5-trifluorophenyl)-5,7-dihydro-4H-pyrazolo[3,4-c]pyridin-6-yl]-(5-methylpyrazolo[1,5-b]pyridazin-3-yl) methanone]", "IC50": 12.4},
      {"smiles": "Cc1ccnn2nc(C3CC3)c(C(=O)N3CCc4c(nn(C)c4-c4cc(F)c(F)c(F)c4)[C@@H]3C)c12", "note": "[Example 444, (2-Cyclopropyl-4-methyl-pyrazolo[1,5-b]pyridazin-3-yl)-[(7S)-2,7-dimethyl-3-(3,4,5-trifluorophenyl)-5,7-dihydro-4H-pyrazolo[3,4-c]pyridin-6-yl]methanone]", "IC50": 2380},
      {"smiles": "Cc1cnn2nc(C3CC3)c(C(=O)N3CCc4c(nn(C)c4-c4cc(F)c(F)c(F)c4)[C@@H]3C)c2c1", "note": "[Example 445, (2-Cyclopropyl-5-methyl-pyrazolo[1,5-b]pyridazin-3-yl)-[(7S)-2,7-dimethyl-3-(3,4,5-trifluorophenyl)-5,7-dihydro-4H-pyrazolo[3,4-c]pyridin-6-yl]methanone]", "IC50": 525},
      {"smiles": "Cc1nn2ccnc(C)c2c1C(=O)N1CCc2c(nn(C)c2-c2cc(F)c(F)c(F)c2)[C@@H]1C", "note": "[Example 446, (2,4-Dimethylpyrazolo[1,5-a]pyrazin-3-yl)-[(7S)-2,7-dimethyl-3-(3,4,5-trifluorophenyl)-5,7-dihydro-4H-pyrazolo[3,4-c]pyridin-6-yl] methanone]", "IC50": 34.1},
      {"smiles": "Cc1nccn2nc(C3CC3)c(C(=O)N3CCc4c(nn(C)c4-c4cc(F)c(F)c(F)c4)[C@@H]3C)c12", "note": "[Example 447, (2-Cyclopropyl-4-methyl-pyrazolo[1,5-a]pyrazin-3-yl)-[(7S)-2,7-dimethyl-3-(3,4,5-trifluorophenyl)-5,7-dihydro-4H-pyrazolo[3,4-c]pyridin-6-yl]methanone]", "IC50": 392},
      {"smiles": "C[C@H]1c2nn(C)c(-c3cc(F)c(F)c(F)c3)c2CCN1C(=O)c1cnn2cccnc12", "note": "[Example 448, [(7S)-2,7-Dimethyl-3-(3,4,5-trifluorophenyl)-5,7-dihydro-4H-pyrazolo[3,4-c]pyridin-6-yl]-pyrazolo[1,5-a]pyrimidin-3-yl-methanone]", "IC50": 113},
      {"smiles": "Cc1nn2cccnc2c1C(=O)N1CCc2c(nn(C)c2-c2cc(F)c(F)c(F)c2)[C@@H]1C", "note": "[Example 449, [(7S)-2,7-Dimethyl-3-(3,4,5-trifluorophenyl)-5,7-dihydro-4H-pyrazolo[3,4-c]pyridin-6-yl]-(2-methylpyrazolo[1,5-a]pyrimidin-3-yl)methanone]", "IC50": 49},
      {"smiles": "Cc1ccnc2c(C(=O)N3CCc4c(nn(C)c4-c4cc(F)c(F)c(F)c4)[C@@H]3C)cnn12", "note": "[Example 450, [(7S)-2,7-Dimethyl-3-(3,4,5-trifluorophenyl)-5,7-dihydro-4H-pyrazolo[3,4-c]pyridin-6-yl]-(7-methylpyrazolo[1,5-a]pyrimidin-3-yl) methanone]", "IC50": 172},
      {"smiles": "Cc1cnc2c(C(=O)N3CCc4c(nn(C)c4-c4cc(F)c(F)c(F)c4)[C@@H]3C)cnn2c1", "note": "[Example 451, [(7S)-2,7-Dimethyl-3-(3,4,5-trifluorophenyl)-5,7-dihydro-4H-pyrazolo[3,4-c]pyridin-6-yl]-(6-methylpyrazolo[1,5-a]pyrimidin-3-yl)methanone]", "IC50": 199},
      {"smiles": "C[C@H]1c2nn(C)c(-c3cc(F)c(F)c(F)c3)c2CCN1C(=O)c1ccc2nccn2n1", "note": "[Example 452, [(7S)-2,7-Dimethyl-3-(3,4,5-trifluorophenyl)-5,7-dihydro-4H-pyrazolo[3,4-c]pyridin-6-yl]-imidazo[1,2-b]pyridazin-6-yl-methanone]", "IC50": 276},
      {"smiles": "Cc1cn2nc(C(=O)N3CCc4c(nn(C)c4-c4cc(F)c(F)c(F)c4)[C@@H]3C)ccc2n1", "note": "[Example 453, [(7S)-2,7-Dimethyl-3-(3,4,5-trifluorophenyl)-5,7-dihydro-4H-pyrazolo[3,4-c]pyridin-6-yl]-(2-methylimidazo[1,2-b]pyridazin-6-yl)methanone]", "IC50": 165}
    ]}
  ]
}
